By IC50 is commonly meant the concentration at which inhibition is half-maximal. A high value points to a need for much substance. The term Ki denotes a dissociation constant, usually derived from enzyme kinetics or from competition with a known ligand. Read a low Ki as a stronger hold on the target.

Each structure is given as a SMILES string.

Among the data in BindingDB's records for doi:10.1021/bi00139a026 (University of California San Francisco, 1992) are IC50 and Ki values, retold here.

For assay [1], the target named is T1, Amine oxidase [flavin-containing] B (Homo sapiens, UniProt P27338).
T1 sequence (P27338 whole entry): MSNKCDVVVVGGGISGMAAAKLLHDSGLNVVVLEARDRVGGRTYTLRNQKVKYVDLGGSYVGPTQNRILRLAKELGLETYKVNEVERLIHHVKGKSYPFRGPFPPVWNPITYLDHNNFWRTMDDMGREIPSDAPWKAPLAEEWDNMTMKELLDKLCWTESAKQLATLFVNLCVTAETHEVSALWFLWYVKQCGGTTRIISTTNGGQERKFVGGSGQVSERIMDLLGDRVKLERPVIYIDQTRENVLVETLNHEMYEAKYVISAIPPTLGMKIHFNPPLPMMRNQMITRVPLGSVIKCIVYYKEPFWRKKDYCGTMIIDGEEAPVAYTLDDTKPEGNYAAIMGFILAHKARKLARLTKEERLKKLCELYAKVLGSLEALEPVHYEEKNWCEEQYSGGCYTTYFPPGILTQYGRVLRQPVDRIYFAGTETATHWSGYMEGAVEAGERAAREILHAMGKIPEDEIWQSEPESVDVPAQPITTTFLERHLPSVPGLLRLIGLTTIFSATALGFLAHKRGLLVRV
Briefly: Inhibiton Assay. The text has this:
(§1) Inhibition assay using MAO-A and MAO-B.

For assay [2], the target named is T2, Amine oxidase [flavin-containing] A (Homo sapiens, UniProt P21397).
T2 sequence (P21397 whole entry): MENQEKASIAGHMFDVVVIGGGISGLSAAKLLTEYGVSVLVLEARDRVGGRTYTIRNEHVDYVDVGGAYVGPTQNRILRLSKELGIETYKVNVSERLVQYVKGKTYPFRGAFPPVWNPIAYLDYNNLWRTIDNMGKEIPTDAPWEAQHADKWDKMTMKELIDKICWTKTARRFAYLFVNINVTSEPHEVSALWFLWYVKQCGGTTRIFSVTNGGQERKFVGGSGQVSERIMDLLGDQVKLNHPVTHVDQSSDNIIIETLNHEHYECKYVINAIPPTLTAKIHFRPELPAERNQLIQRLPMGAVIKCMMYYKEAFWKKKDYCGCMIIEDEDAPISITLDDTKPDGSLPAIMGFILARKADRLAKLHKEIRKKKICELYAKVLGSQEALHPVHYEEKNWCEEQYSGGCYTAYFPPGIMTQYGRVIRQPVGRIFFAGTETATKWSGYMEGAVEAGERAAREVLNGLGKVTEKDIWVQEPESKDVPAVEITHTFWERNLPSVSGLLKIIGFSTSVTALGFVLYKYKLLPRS
Description: Inhibiton Assay.
Text: as §1

`C[n+]1ccc(CCc2ccccc2)cc1` [MPP analogue, 17] registered an IC50 in assay [1] of 12 µM. Further, the Ki in assay [2] was 37 µM.
`C[n+]1ccc(Cc2ccccc2F)cc1` [MPP analogue, 18] showed a half-inhibitory concentration (IC50) in assay [1] of 2000 µM. The molecule also displayed a Ki in assay [2] of 29 µM.
In turn, `C[n+]1ccc(Cc2cccc3ccccc23)cc1` [MPP analogue, 19] gave an IC50 in assay [1] of 850 µM. The inhibitory constant (Ki) in assay [2] was 5.5 µM.
